Source: publication PMC4448987, “A neuroligin-1-derived peptide stimulates phosphorylation of the NMDA receptor NR1 subunit and rescues MK-801-induced decrease in long-term potentiation and memory impairment” (Pharmacology Research & Perspectives, 2015)

Columns and labels:
[1] = test system: hippocampal slices, CA3-CA1 synapse (fEPSP slope); test: LTP in acute hippocampal slices from mice injected s.c.; format: in vivo, C57BL/6N mice; settings: mice injected with neurolide-1 10 mg/kg s.c. 24 h and 1 h before sacrifice plus MK-801 0.1 mg/kg s.c.; slope 25-30 min after HFS vs before; mean ± SEM, n = 6
Protocol: Juvenile C57BL/6N mice of both sexes (postnatal day 16–24; Taconic, Ejby, Denmark) were injected subcutaneously (s.c.) with 10 mg/kg of the neurolide-1 peptide solution (10 mg/mL) and again 23 h later with 10 mg/kg of the neurolide-1 peptide solution (10 mg/mL) and 0.1 mg/kg MK-801 solution (0.025 mg/mL). Mice receiving the injection with the MK-801 solution only or untreated mice served as control groups. The young mice were rapidly and humanely euthanized with a minimum of distress by decapitation at a time point corresponding to 24 h after first injection. Preceding anesthetic was omitted to preserve the tissue free of drug residues and brain slice functions as unaltered as possible when performing the physiological measurements. After decapitation, the brain was removed. […]
Measurements were made in oxygenated aCSF at room temperature (1.1 mL/min). […] The field potential in the stratum radiatum of the CA1 area of the hippocampus was recorded with an extracellular glass microelectrode (4–6 MΩ, filled with aCSF), positioned at least 500 μm away from the stimulation electrode. […]

[2] = test system: male Wistar rats; test: Y maze test (spontaneous alternation); format: in vivo, rat
Protocol: NMDA-mediated effects of Neurolide-1 on spatial working memory performance was assessed by recording spontaneous alternation behavior in a Y maze test performed as described previously (Wegener et al. [2011]), (See Data S1). Initially, adult male Wister rats (420–490 g, n = 6–12; Charles River) were injected s.c., three times at 28, 4, and 2 h before start of the Y maze test. One group received Neurolide-1, saline, and neurolide-1 in this order. Another group received saline, MK-801, and saline in this order. A third group received neurolide-1, MK-801, and neurolide-1 in this order. And control group received saline at all times. In a second setup we tested the effect of neurolide-1 in very young male Wistar rats (4-weeks old) which received a s.c., injection of neurolide-1 or saline 2 h prior to testing them in the Y-maze (n = 11–15). Terminally, rats were rapidly and humanely rendered unconscious by concussive stunning and euthanized by cervical dislocation.
The maze was made of gray polyvinyl chloride, with three identical arms (425 mm length × 225 mm height × 145 mm width) mounted symmetrically to an equilateral triangular center section. Each rat was placed at the end of one arm and allowed to explore the apparatus freely for 8 min. The sequence and number of all arm entries were recorded for each animal throughout the testing period. An alternation was defined as entries into all three arms on consecutive occasions. Therefore, the number of maximal alternation was the total number of arm entries minus 2, and the percentage of alternation was calculated as (actual alternations / maximal alternations) × 100. The total number of arms entered during the sessions was also determined (Yamaguchi et al, 2006). Data were eliminated in cases in which the number of total arm entries was less than 10 or when the rat escaped from the Y maze. After each trial, the Y maze was cleaned with 1% Virkon S (Pharmaxim, Helsingborg, Sweden).

[3] = test system: NMDA receptor NR1 subunit (serine 897); test: NMDA receptor phosphorylation assay (immunoblot, anti-phospho-Ser897-NR1) in cultured cortical neurons; format: cell-based, Wistar rat; settings: cultured rat cortical neurons, 0.1, 0.3, 1 and 2.7 μmol/L for 5 min, eight independent experiments
Protocol: Cortical neurons were obtained from Wistar rat embryos at embryonic day 19, of both sexes, basically as previously described (Maar et al. [1997]) (see Data S1). Briefly, animals were rendered unconscious by concussive stunning and euthanized by cervical dislocation. Hereafter, the embryonic brains were collected and cortical neurons were dissociated and seeded in 60-mm tissue culture dishes coated with 1 μg/mL of poly-D-lysine (Sigma-Aldrich, St. Louis, MO) and grown for 8 days before treatment. Then, the cultures were stimulated with either the NL1 ectodomain (0.2, 0.6, 1.8, and 5.4 nmol/L) or neurolide-1 (0.1, 0.3, 1, and 2.7 μmol/L) for 5 min. The cells were lysed, and proteins were resolved by sodium dodecyl sulfate-polyacrylamide gel electrophoresis followed by immunoblotting using rabbit anti-Ser897-NR1 antibody (1:500; Millipore, Billerica, MA), mouse anti-β-tubulin antibody (1:50,000; Sigma-Aldrich), and IRDye secondary antibodies (Odyssey, Lincoln, NE). The bands were visualized using the Odyssey CLX Infrared Imaging System (Odyssey). Four independent experiments with stimulation by NL1 ectodomain and eight independent experiments with stimulation by neurolide-1 were performed.

[4] = test system: hippocampal slices (LTP); test: LTP in acute hippocampal slices, peptide added directly to aCSF; design: species or system mice; settings: neurolide-1 alone, 1 µmol/L added to running artificial CSF during baseline before LTP induction
Protocol: Measurements were made in oxygenated aCSF at room temperature (1.1 mL/min). Schaeffer collaterals were stimulated with a bipolar concentric electrode (TM33CCNON; World Precision Instruments, Sarasota, FL). The field potential in the stratum radiatum of the CA1 area of the hippocampus was recorded with an extracellular glass microelectrode (4–6 MΩ, filled with aCSF), positioned at least 500 μm away from the stimulation electrode. The stimulus intensity was set 0.03 mA above the threshold. After a 30-min baseline was obtained with stimulation at 0.05 Hz, long-term potentiation (LTP) was induced by stimulating the Schaeffer collaterals at 100 Hz for 1 s four times at 20 s intervals. A new baseline was established over the following 30 min. Potentiation was estimated by comparing the rising slope of the field excitatory postsynaptic potential (fEPSP) before and 25–30 min after high-frequency stimulation.
Supplementary file prp20003-e00126-sd2.tif: Figure S1. Effect of neurolide-1 on LTP in acute hippocampal slices. Neurolide-1 at a concentration of 1 µmol/L was added directly to the running artificial CSF during baseline measurement before the induction of LTP.
Supplementary Figure S1. Effect of neurolide-1 on LTP in acute hippocampal slices. Neurolide-1 at a concentration of 1 µM was added directly to the running artificial CSF during baseline measurement before the induction of LTP.

[5] = 4-week-old male Wistar rats, single s.c. treatment 2 h before test, n = 11-15

Sequence: SEGNRWSNSTKGLFQRA [neurolide-1]
- increase of fEPSP slope after high-frequency stimulation (LTP) [1]: 57 ± 12%
- alternation rate in 4-week-old rats [2, 5]: 76%
- total number of arms visited in 4-week-old rats [2, 5]: slightly decreased the total number of arms visited
- working memory performance (alternation rate), peptide alone ([2]; adult rats 420-490 g, neurolide-1 10 mg/kg s.c. 24 and 2 h before test, n = 6-12): did not affect performance
- total number of arm entries, combined treatment neurolide-1 + MK-801 ([2]; adult rats, neurolide-1 10 mg/kg s.c. twice plus MK-801 0.1 mg/kg, n = 6-12): significantly increased the total number of arms visited
- working memory (alternation rate) in MK-801-treated animals ([2]; adult rats, neurolide-1 10 mg/kg s.c. twice, MK-801 0.1 mg/kg 2 h before second neurolide-1 injection, n = 6-12): partially restored working memory
- total number of arm entries, single treatment ([2]; adult rats, peptide alone or MK-801 alone, n = 6-12): did not change
- NR1 phosphorylation on serine 897 [3]: induced NR1 phosphorylation proportionally to the increase in peptide concentration
- effect on LTP, direct treatment of hippocampal slices [4]: did not affect LTP
